Data taken from PMC12403558, “Novel enzymes involved in the biotransformation of oxytetracycline by Arthrobacter nicotianae OTC-16” (Microbiology Spectrum, 2025).

How the values were obtained:
prpD = target: T1, prpD (Glutamicibacter nicotianae, UniProt A0ABQ0RQ59); experiment: OTC depletion by HPLC after adding […] mg expressed protein extract; type: biochemical; conditions: LB broth without strain OTC-16, 30 C, 180 rpm, 4 days, product not identified, not described as purified
T1 construct: gene ANI01nite_31520; E. coli BL21(DE3) soluble extract, no purification described; about 55 kDa; primers encode N-term MINHPVR, C-term PKGLF
T1 sequence (A0ABQ0RQ59 entry or part of it): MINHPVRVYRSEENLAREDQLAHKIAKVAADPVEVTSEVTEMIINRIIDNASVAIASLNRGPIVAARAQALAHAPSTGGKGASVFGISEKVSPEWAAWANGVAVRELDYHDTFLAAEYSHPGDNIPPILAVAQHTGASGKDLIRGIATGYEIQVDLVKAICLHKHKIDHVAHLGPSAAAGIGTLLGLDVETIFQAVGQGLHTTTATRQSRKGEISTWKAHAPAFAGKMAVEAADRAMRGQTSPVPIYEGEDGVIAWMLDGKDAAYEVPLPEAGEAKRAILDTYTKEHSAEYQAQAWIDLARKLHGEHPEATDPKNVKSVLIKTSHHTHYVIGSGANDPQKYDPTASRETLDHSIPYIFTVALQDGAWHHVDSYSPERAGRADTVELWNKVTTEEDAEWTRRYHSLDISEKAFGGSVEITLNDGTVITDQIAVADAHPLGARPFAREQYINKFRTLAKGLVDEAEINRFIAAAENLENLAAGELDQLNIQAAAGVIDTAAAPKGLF

uaZ = target: T2, uaZ (Glutamicibacter nicotianae, UniProt A0ABQ0RHS3); experiment: as above; type: biochemical; conditions: LB broth without strain OTC-16, 30 C, 180 rpm, 4 days, product not identified, not described as purified
T2 construct: gene ANI01nite_05670; E. coli BL21(DE3) soluble extract, no purification described; about 34 kDa; primers encode N-term MTTEITAPAD, C-term IWANIPAFI
T2 sequence (A0ABQ0RHS3 entry or part of it): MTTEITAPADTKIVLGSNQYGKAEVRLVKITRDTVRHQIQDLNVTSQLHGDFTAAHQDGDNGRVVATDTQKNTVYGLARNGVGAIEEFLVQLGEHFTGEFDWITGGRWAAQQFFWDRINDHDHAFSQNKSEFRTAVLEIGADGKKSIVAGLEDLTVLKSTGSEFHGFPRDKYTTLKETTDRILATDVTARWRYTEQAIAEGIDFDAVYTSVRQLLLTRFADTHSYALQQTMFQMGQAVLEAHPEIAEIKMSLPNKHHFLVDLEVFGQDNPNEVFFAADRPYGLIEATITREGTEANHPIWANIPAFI

## CN(C)[C@@H]1C(=O)C(C(N)=O)=C(O)[C@@]2(O)C(=O)C3=C(O)c4c(O)cccc4[C@@](C)(O)[C@H]3[C@H](O)[C@@H]12 [oxytetracycline]
prpD
  OTC depletion by HPLC after adding 0.1 mg expressed protein extract: the degradation proteins prpD and uaZ exhibited degradation effects on OTC
uaZ
  OTC depletion by HPLC after adding 0.1 mg expressed protein extract: the degradation proteins prpD and uaZ exhibited degradation effects on OTC
